Data set [1] deals with HepG2. Kind of data set: MTT cytotoxicity assay (Example 30). It counts as cell-based. As to conditions: Homo sapiens. An excerpt: Cytotoxicity of the compounds is the major property determining their anticancer effect in vivo. One of the parameters used, as the basis for cytotoxicity assays, is the metabolic activity of viable cells. For example, a microtiter assay, which uses (3-(4,5-Dimethylthiazol-2-yl)-2,5-diphenyltetrazolium bromide (MTT), is widely used to quantitate cell proliferation and cytotoxicity. For instance, this assay is used in drug screening programs and in chemosensitivity testing. Because only metabolically active living cells reduce MTT to correspond purple formazan dye, these assays detect viable cells exclusively. The quantity of reduced MTT corresponds to the number of vital cells in the culture.
(§1) We have been using the following cell lines: HUH-7 and PLC/PRF/5 cell lines were maintained in DMEM supplemented with 10% fetal bovine serum, penicillin (100 U/ml) and streptomycin (100 μg/ml). Unique HCC-1.2 (3p) and HCC-1.1 (3sp) cell lines (Zilj et al., 2009, Future Oncol, 5(8):1169-79) and Hep3B cells were cultivated in RPMI supplemented with 10% fetal bovine serum, penicillin (100 U/ml) and streptomycin (100 μg/ml). HepG2 cell line was maintained in EMEM supplemented with 10% fetal bovine serum, sodium pyruvate (0.11 g/1), penicillin (100 U/ml) and streptomycin (100 μg/ml). All cell lines were cultivated at 37° C. in 5% CO2. For cytotoxicity assays, 3000 cells (10000 cells in case of HepG2 cell line) were seeded into each well of 96 well plate and the next day tested compounds were added at various concentrations in triplicates. Three days after drug addition MTT stock solution (5 mg/ml) was added into each well and incubated for 4 h. After this incubation period, produced formazan was dissolved by DMSO and final absorbance was measured at 570 nm with Synergy H4 Hybrid Multi-Mode Microplate Reader.
In general terms: Tetrazolium assays rely on reduction of a dye to a coloured formazan, in cell work by metabolically active cells.

Data set [2] concerns Hep3B. Kind of data set: MTT cytotoxicity assay (Example 30). It counts as cell-based, human. As to conditions: Homo sapiens, Hep3B. Here is the method:
(§2) Cytotoxicity of the compounds is the major property determining their anticancer effect in vivo. One of the parameters used, as the basis for cytotoxicity assays, is the metabolic activity of viable cells.
as §1, with “Unique HCC-1.2 (3p) and HCC-1.1 (3sp) cell lines (Zilj et al., 2009, Future Oncol, 5(8):1169-79) and Hep3B cells were cultivated in RPMI supplemented with 10% fetal bovine serum, penicillin (100 U/ml) and streptomycin (100 μg/ml).” left out

The subject of data set [3] is PLC/PRF/5. Kind of data set: MTT cytotoxicity assay (Example 30). Format: cell-based. As to conditions: Homo sapiens. As to the method: as §2
as §1, with “Unique HCC-1.2 (3p) and HCC-1.1 (3sp) cell lines (Zilj et al., 2009, Future Oncol, 5(8):1169-79) and Hep3B cells were cultivated in RPMI supplemented with 10% fetal bovine serum, penicillin (100 U/ml) and streptomycin (100 μg/ml).” left out

Data set [4] relates to HCC-1.2 (3p). In words: MTT cytotoxicity assay (Example 30). It counts as cell-based. As to conditions: Homo sapiens. As to the method:
as §2
as §1, with “Unique HCC-1.2 (3p) and HCC-1.1 (3sp) cell lines (Zilj et al., 2009, Future Oncol, 5(8):1169-79) and Hep3B cells were cultivated in RPMI supplemented with 10% fetal bovine serum, penicillin (100 U/ml) and streptomycin (100 μg/ml).” left out

Data set [5] relates to HUH-7. In words: MTT cytotoxicity assay (Example 30). It counts as cell-based. As to conditions: Homo sapiens. Here is the method: as §2
as §1, with “Unique HCC-1.2 (3p) and HCC-1.1 (3sp) cell lines (Zilj et al., 2009, Future Oncol, 5(8):1169-79) and Hep3B cells were cultivated in RPMI supplemented with 10% fetal bovine serum, penicillin (100 U/ml) and streptomycin (100 μg/ml).” left out

In data set [6] the test system is HCC-1.1 (3sp). Kind of data set: MTT cytotoxicity assay (Example 30). It counts as cell-based. As to conditions: Homo sapiens. Here is the method:
as §2
as §1, with “Unique HCC-1.2 (3p) and HCC-1.1 (3sp) cell lines (Zilj et al., 2009, Future Oncol, 5(8):1169-79) and Hep3B cells were cultivated in RPMI supplemented with 10% fetal bovine serum, penicillin (100 U/ml) and streptomycin (100 μg/ml).” left out

The subject of data set [7] is human umbilical vein endothelial cells (HUVEC). Kind of data set: HUVEC proliferation, Calcein AM. As to conditions: Homo sapiens, HUVEC, read-out: Inhibitory concentration for HUVEC cells - IC50. It counts as cell-based. As to the method:
Novel 2-substituted-6-biarylmethylamino-9-cyclopentyl-9H-purine derivatives were tested for their potential anti-angiogenic properties; we analyzed its influence on the proliferation (Tab. 9), migration and tube formation of human umbilical vein endothelial cells (HUVEC). Confluent HUVECs were seeded in 96-well microtiter plates to detect their proliferation for 24 or 72 h using Calcein AM solution (Invitrogen) and a Fluoroskan Ascent microplate reader (Labsystems) as described previously (Krystof et al., 2011, Eur J Med Chem. 2011 September; 46(9):4289-94).

Where [8] appears, read: HepG2, 72 h, MTT, three days after drug addition, read-out: Inhibitory concentration IC50, HepG2.
Setting [9] is: 72 h, MTT, three days after drug addition, read-out: Inhibitory concentration IC50, Hep3B.
Where [10] appears, read: PLC-PRF-5, 72 h, MTT, three days after drug addition, read-out: Inhibitory concentration IC50, PLC/PRF/5.
[11] abbreviates: HCC-1.2, 72 h, MTT, three days after drug addition, read-out: Inhibitory concentration IC50, 3p.
[12] abbreviates: Huh-7, 72 h, MTT, three days after drug addition, read-out: Inhibitory concentration IC50, HUH-7.
Setting [13] is: 72 h, MTT, three days after drug addition, read-out: Inhibitory concentration IC50, 3sp.
The mark [14] stands for this setting: HepG2, Table 3, read-out: Inhibitory concentration IC50, HepG2 (reference molecules).
Where [15] appears, read: Table 3, read-out: Inhibitory concentration IC50, Hep3B (reference molecules).
[16] abbreviates: PLC-PRF-5, Table 3, read-out: Inhibitory concentration IC50, PLC/PRF/5 (reference molecules).
[17] abbreviates: HCC-1.2, Table 3, read-out: Inhibitory concentration IC50, AKH3p (reference molecules).
The mark [18] stands for this setting: Huh-7, Table 3, read-out: Inhibitory concentration IC50, HUH-7 (reference molecules).
The mark [19] stands for this setting: Table 3, read-out: Inhibitory concentration IC50, AKH3sp (reference molecules).

Read-outs that look alike come from different tables or passages of the source.

IC50 and melting point data for four compounds are collected here from US20150368248A1, “2-SUBSTITUTED-6-BIARYLMETHYLAMINO-9-CYCLOPENTYL-9H-PURINE DERIVATIVES, USE THEREOF AS MEDICAMENTS, AND PHARMACEUTICAL COMPOSITIONS” (UNIVERZITA PALACKEHO V OLOMOUCI, priority 2013, published 2015).

For the compound `NC1CCC(Nc2nc(NCc3ccc(Br)nc3)c3ncn(C4CCCC4)c3n2)CC1` (centres unmarked) [BP110, N^2-(4-amino-cyclohexyl)-N^6-(6-bromo-pyridin-3-ylmethyl)-9-cyclopentyl-9H-purine-2,6-diamine], the melting point lay in the range of 114 to 116 °C. The IC50 in data set [1] (setting [8]) is above 1000 nM. In addition, the IC50 in data set [2] (setting [9]) came to 488 nM. Further, in data set [3] (setting [10]), the IC50 came to 400 nM. Moreover, in data set [4] (setting [11]), the IC50 turned out to be 334 nM. Further, the IC50 in data set [5] (setting [12]) turned out to be 513 nM. Also, in data set [6] (setting [13]), the IC50 came out at 515 nM.
`NC1CCC(Nc2nc(NCc3ccc(Br)cc3)c3ncn(C4CCCC4)c3n2)CC1` (centres unmarked) [BP102, N^2-(4-amino-cyclohexyl)-N^6-(4-bromo-benzyl)-9-cyclopentyl-9H-purine-2,6-diamine]: the IC50 in data set [1] (setting [8]) is above 1000 nM; in data set [2] (setting [9]), 268 nM; in data set [3] (setting [10]), 644 nM; in data set [4] (setting [11]), 492 nM; in data set [5] (setting [12]) it was 386 nM; in data set [6] (setting [13]), 441 nM.
For the compound `CNC(=O)c1cc(Oc2ccc(NC(=O)Nc3ccc(Cl)c(C(F)(F)F)c3)cc2)ccn1` [sorafenib, reference compound], the IC50 in data set [1] (setting [14]) is 5850 nM; in data set [2] (setting [15]), 3740 nM; in data set [7] (24 h) it was above 50000 nM; in data set [7] (72 h), above 10000 nM; in data set [3] (setting [16]) it was 4060 nM; in data set [4] (setting [17]), 4420 nM. For the same compound, the IC50 in data set [5] (setting [18]) was found to be 2860 nM; in data set [6] (setting [19]) it was 6390 nM.
For the compound `COc1cccc2c1C(=O)c1c(O)c3c(c(O)c1C2=O)C[C@@](O)(C(=O)CO)C[C@@H]3O[C@H]1C[C@H](N)[C@H](O)[C@H](C)O1` [doxorubicin, reference compound], the IC50 in data set [1] (setting [14]) is 1380 nM; in data set [2] (setting [15]), 460 nM; in data set [7] (24 h) it was above 6600 nM; in data set [7] (72 h), above 6600 nM; in data set [3] (setting [16]), 670 nM; in data set [4] (setting [17]), 540 nM. For the same compound, the IC50 is 1250 nM in data set [5] (setting [18]) and 270 nM in data set [6] (setting [19]).

One may read the melting point as the temperature of the solid-liquid transition.
